This note sets out measurements from paper PMC8445441, “Elucidating the mechanism by which synthetic helper peptides sensitize Pseudomonas aeruginosa to multiple antibiotics” (PLoS Pathogens, 2021).

Assay [1] has as its system clinical P. aeruginosa isolates. As to the kind of experiment: microbe, parasite or virus in culture. The conditions noted are these: for MIC: Pseudomonas aeruginosa, 18 h; for Antibiotic sensibility (MIC) of clinical P. aeruginosa isolate AUMC-Pa-1: strain AUMC-Pa-1; for Antibiotic sensibility (MIC) of clinical P. aeruginosa isolate AUMC-Pa-2: strain AUMC-Pa-2; for Antibiotic sensibility (MIC) of clinical P. aeruginosa isolate AUMC-Pa-3: strain AUMC-Pa-3; for Antibiotic sensibility (MIC) of clinical P. aeruginosa isolate AUMC-Pa-4: strain AUMC-Pa-4; for Antibiotic sensibility (MIC) of clinical P. aeruginosa isolate AUMC-Pa-5: strain AUMC-Pa-5; for Antibiotic sensibility (MIC) of clinical P. aeruginosa isolate AUMC-Pa-6: strain AUMC-Pa-6; for Antibiotic sensibility (MIC) of clinical P. aeruginosa isolate HM-214: strain HM-214; for Antibiotic sensibility (MIC) of clinical P. aeruginosa isolate NR-31040: strain NR-31040; for Antibiotic sensibility (MIC) of clinical P. aeruginosa isolate NR-31041: strain NR-31041. The procedure:
The bacterial strains, primers and plasmids used in this study are listed in S5 Table. […] Bacteria were cultured in LB medium or cation-adjusted Muller-Hinton broth (CA-MHB) at 37 °C with agitation at 220 rpm. All the antibiotics and chemical compounds used in this study were purchased from Sigma-Aldrich.
(§1) The MIC tests were performed in triplicate using broth microdilution in accordance with Clinical and Laboratory Standards Institute (CLSI) recommendations (http://iacld.ir/DL/public/CLSI-2018-M100-S28.pdf). Briefly, drugs were two-fold diluted in MHB and mixed with an equal volume of bacterial suspensions containing approximately 1 × 10^6 CFU/mL in 96-well microliter plate. After 18 h incubation at 37 °C, the MIC values were defined as the lowest concentrations of antibiotics with no visible growth of bacteria. […] Otherwise, 1/4 MIC of the peptide was used in the combination. […] If needed, membrane compounds PG, PE, PC, CL or LPS, or membrane stabilizers MgCl2 or CaCl2, or efflux pumps inhibitor PAβN were added to the broth medium to clarify the effect of other substances on the synergy between peptide and antibiotics. All the tests were performed in triplicate.

Assay [2] concerns P. aeruginosa PAO1. As to the kind of experiment: microbe, parasite or virus in culture. The note with it: for MIC: Pseudomonas aeruginosa, PAO1, 18 h. How it is done: as §1
The fractional inhibitory concentration (FIC) indices were calculated using the previously described formula FICI = FICa + FICb = MICac/MICa + MICbc/MICb. The FICI was interpreted according to EUCAST [65] as follows: synergistic, FICI≤0.5; additive, 0.5<FICI≤1; indifferent, 1<FICI<2; antagonistic, FICI ≥2. For the FICI calculations, twice the highest concentration tested was used in the cases where the MIC was not reached.

Setting [3] is: read-out: Antibiotic sensibility (MIC) of clinical P. aeruginosa isolate AUMC-Pa-1, strain AUMC-Pa-1, antibiotic alone.
Where [4] appears, read: read-out: Antibiotic sensibility (MIC) of clinical P. aeruginosa isolate AUMC-Pa-2, strain AUMC-Pa-2, antibiotic alone.
[5] abbreviates: read-out: Antibiotic sensibility (MIC) of clinical P. aeruginosa isolate AUMC-Pa-3, strain AUMC-Pa-3, antibiotic alone.
The mark [6] stands for this setting: read-out: Antibiotic sensibility (MIC) of clinical P. aeruginosa isolate AUMC-Pa-4, strain AUMC-Pa-4, antibiotic alone.
The mark [7] stands for this setting: read-out: Antibiotic sensibility (MIC) of clinical P. aeruginosa isolate AUMC-Pa-5, strain AUMC-Pa-5, antibiotic alone.
Where [8] appears, read: read-out: Antibiotic sensibility (MIC) of clinical P. aeruginosa isolate AUMC-Pa-6, strain AUMC-Pa-6, antibiotic alone.
The mark [9] stands for this setting: read-out: Antibiotic sensibility (MIC) of clinical P. aeruginosa isolate HM-214, strain HM-214, antibiotic alone.
[10] abbreviates: read-out: Antibiotic sensibility (MIC) of clinical P. aeruginosa isolate NR-31040, strain NR-31040, antibiotic alone.
Where [11] appears, read: read-out: Antibiotic sensibility (MIC) of clinical P. aeruginosa isolate NR-31041, strain NR-31041, antibiotic alone.
Setting [12] is: S3 Table, PAO1, antibiotic + 2 μM D-11.
Setting [13] is: S3 Table, PAO1, antibiotic + 4 μM D-11.
[14] abbreviates: S3 Table, antibiotic alone, PAO1.

Where “and” joins values, the source holds several entries; their conditions need not be identical. Identical values can stand only once. Like-named read-outs stand apart in the source and are kept apart here.

Turning to `CNC(C)C1CCC(N)C(OC2C(N)CC(N)C(OC3OCC(C)(O)C(NC)C3O)C2O)O1` (stereo not drawn) [Gentamicin], the MIC in assay [1] (setting [3]) was determined as 0.5 µM; in assay [1] (setting [4]), 0.25 µM; in assay [1] (setting [5]) it was 0.0625 µM; in assay [1] (setting [6]), 0.5 µM; in assay [1] (setting [7]) it was 0.5 µM; in assay [1] (setting [8]), 2 µM. Moreover, the MIC came to 1 µM in assay [1] (setting [9]), 32 µM in assay [1] (setting [10]) and 32 µM in assay [1] (setting [11]). In addition, the FICI was 2.063 in assay [2] (setting [12]) and 2.125 in assay [2] (setting [13]). Further, the “MICac: the MIC for the antibiotic in the combination” value (from here on “MICac: the MIC for the antibiotic”) in assay [2] (S3 Table, PAO1, with 2 μM D-11) was found to be 2 µM; in assay [2] (S3 Table, PAO1, with 4 μM D-11), 2 µM. Besides, in assay [2] (setting [14]), the “MICa: the MIC of antibiotics” value turned out to be 1 µM.

Turning to `NC[C@H]1O[C@H](O[C@H]2[C@H](O)[C@@H](O[C@H]3O[C@H](CO)[C@@H](O)[C@H](N)[C@H]3O)[C@H](N)C[C@@H]2N)[C@H](O)[C@@H](O)[C@@H]1O` [Kanamycin], in assay [1] (antibiotic alone), the “Antibiotic sensibility (MIC) of clinical P. aeruginosa isolate AUMC-Pa-1” value was determined as 64 µM, the “Antibiotic sensibility (MIC) of clinical P. aeruginosa isolate AUMC-Pa-2” value is 16 µM, the “Antibiotic sensibility (MIC) of clinical P. aeruginosa isolate AUMC-Pa-3” value was 32 µM and the “Antibiotic sensibility (MIC) of clinical P. aeruginosa isolate AUMC-Pa-4” value came out at 32 µM. Further, in assay [1] (antibiotic alone), the “Antibiotic sensibility (MIC) of clinical P. aeruginosa isolate AUMC-Pa-5” value was found to be 32 µM, the “Antibiotic sensibility (MIC) of clinical P. aeruginosa isolate AUMC-Pa-6” value came out at 32 µM, the “Antibiotic sensibility (MIC) of clinical P. aeruginosa isolate HM-214” value was 128 µM and the “Antibiotic sensibility (MIC) of clinical P. aeruginosa isolate NR-31040” value was found to be 128 µM. For the same molecule, in assay [1] (antibiotic alone), the “Antibiotic sensibility (MIC) of clinical P. aeruginosa isolate NR-31041” value turned out to be 128 µM. In assay [2] (setting [12]), the FICI is on record as 2.063. The FICI in assay [2] (setting [13]) stood at 2.125. Besides, the “MICac: the MIC for the antibiotic” value in assay [2] (S3 Table, PAO1, with 2 μM D-11) stood at 128 µM. For the same molecule, in assay [2] (S3 Table, PAO1, with 4 μM D-11), the “MICac: the MIC for the antibiotic” value was found to be 128 µM. Also, the “MICa: the MIC of antibiotics” value in assay [2] (setting [14]) was 64 µM.

`CC(=O)NC[C@H]1CN(c2ccc(N3CCOCC3)c(F)c2)C(=O)O1` [Linezolid]: the MIC in assay [1] (setting [3]), in assay [1] (setting [4]), in assay [1] (setting [5]), in assay [1] (setting [6]), in assay [1] (setting [7]) and in assay [1] (setting [8]) was greater than 128 µM each time. Besides, the MIC in assay [1] (setting [9]) was greater than 128 µM; in assay [1] (setting [10]), greater than 128 µM; in assay [1] (setting [11]) it was greater than 128 µM; in assay [2] (read-out: MICa: the MIC of antibiotics, S3 Table, antibiotic alone, PAO1) it was greater than 128 µM. Also, the FICI in assay [2] (setting [12]) is reported as 1.063; in assay [2] (setting [13]) it was 1.125. The “MICac: the MIC for the antibiotic” value in assay [2] (S3 Table, PAO1, with 2 μM D-11) was >128/>128 μM; in assay [2] (S3 Table, PAO1, with 4 μM D-11) it was >128/>128 μM.

`CN(C)C(=O)C(CCN1CCC(O)(c2ccc(Cl)cc2)CC1)(c1ccccc1)c1ccccc1` [Loperamide]: the MIC in assay [1] (read-out: Antibiotic sensibility (MIC) of clinical P. aeruginosa isolate AUMC-Pa-1), in assay [1] (read-out: Antibiotic sensibility (MIC) of clinical P. aeruginosa isolate AUMC-Pa-2), in assay [1] (read-out: Antibiotic sensibility (MIC) of clinical P. aeruginosa isolate AUMC-Pa-3), in assay [1] (read-out: Antibiotic sensibility (MIC) of clinical P. aeruginosa isolate AUMC-Pa-4), in assay [1] (read-out: Antibiotic sensibility (MIC) of clinical P. aeruginosa isolate AUMC-Pa-5) and in assay [1] (read-out: Antibiotic sensibility (MIC) of clinical P. aeruginosa isolate AUMC-Pa-6) was greater than 128 µM each time. Further, the MIC in assay [1] (read-out: Antibiotic sensibility (MIC) of clinical P. aeruginosa isolate HM-214), in assay [1] (read-out: Antibiotic sensibility (MIC) of clinical P. aeruginosa isolate NR-31040), in assay [1] (read-out: Antibiotic sensibility (MIC) of clinical P. aeruginosa isolate NR-31041) and in assay [2] (read-out: MICa: the MIC of antibiotics) was greater than 128 µM each time. Besides, the FICI in assay [2] is 1.063 and 1.125. The “MICac: the MIC for the antibiotic” value in assay [2] is reported as >128/>128 μM.

Regarding `[H]/N=C(/N)N[C@H]1[C@H](O)[C@@H](O)[C@H](O[C@@H]2O[C@@H](C)[C@](O)(C=O)[C@H]2O[C@@H]2O[C@@H](CO)[C@H](O)[C@@H](O)[C@@H]2NC)[C@@H](N/C(N)=N\[H])[C@@H]1O` [Streptomycin], the MIC was 16 µM in assay [1] (setting [3]); 8 µM in assay [1] (setting [4]); 128 µM in assay [1] (setting [5]); 8 µM in assay [1] (setting [6]); 8 µM in assay [1] (setting [7]); 16 µM in assay [1] (setting [8]). The MIC in assay [1] (setting [9]) was 128 µM; in assay [1] (setting [10]) it was greater than 128 µM; in assay [1] (setting [11]), greater than 128 µM. For the same molecule, the FICI in assay [2] (setting [12]) came out at 1.063; in assay [2] (setting [13]), 1.125. Moreover, the “MICac: the MIC for the antibiotic” value in assay [2] (S3 Table, PAO1, with 2 μM D-11) is 64/64 μM; in assay [2] (S3 Table, PAO1, with 4 μM D-11), 64/64 μM. In addition, the “MICa: the MIC of antibiotics” value in assay [2] (setting [14]) is listed as 64/64 μM.

As to Neomycin, in assay [1] (antibiotic alone), the “Antibiotic sensibility (MIC) of clinical P. aeruginosa isolate AUMC-Pa-1” value was 1 µM, the “Antibiotic sensibility (MIC) of clinical P. aeruginosa isolate AUMC-Pa-2” value was 0.5 µM, the “Antibiotic sensibility (MIC) of clinical P. aeruginosa isolate AUMC-Pa-3” value was 0.0625 µM and the “Antibiotic sensibility (MIC) of clinical P. aeruginosa isolate AUMC-Pa-4” value worked out at 0.5 µM. In assay [1] (antibiotic alone), the “Antibiotic sensibility (MIC) of clinical P. aeruginosa isolate AUMC-Pa-5” value is 0.5 µM, the “Antibiotic sensibility (MIC) of clinical P. aeruginosa isolate AUMC-Pa-6” value came out at 2 µM, the “Antibiotic sensibility (MIC) of clinical P. aeruginosa isolate HM-214” value came to 2 µM and the “Antibiotic sensibility (MIC) of clinical P. aeruginosa isolate NR-31040” value stood at 8 µM. The “Antibiotic sensibility (MIC) of clinical P. aeruginosa isolate NR-31041” value in assay [1] (antibiotic alone) stood at 4 µM. In assay [2] (setting [13]), the FICI is listed as 2.125. For the same molecule, the “MICac: the MIC for the antibiotic” value in assay [2] (S3 Table, PAO1, with 2 μM D-11) is 2/2 μM. Also, the “MICac: the MIC for the antibiotic” value in assay [2] (S3 Table, PAO1, with 4 μM D-11) amounted to 4 µM. Also, the “MICa: the MIC of antibiotics” value in assay [2] (setting [14]) was 2/2 μM and 2 μM.
